Biological target: T1, human neutrophil elastase (HNE) (Homo sapiens, UniProt P08246)
T1 construct: purchased Sigma E8140
T1 sequence (P08246 30-247 limits assumed): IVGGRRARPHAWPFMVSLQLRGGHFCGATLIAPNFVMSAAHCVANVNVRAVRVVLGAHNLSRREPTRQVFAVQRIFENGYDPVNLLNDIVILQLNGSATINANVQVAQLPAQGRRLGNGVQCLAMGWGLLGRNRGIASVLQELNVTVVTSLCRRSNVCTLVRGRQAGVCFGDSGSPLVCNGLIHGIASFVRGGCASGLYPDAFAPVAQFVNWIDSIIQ
Experiment: HNE enzyme activity assay
Type: biochemical
Conditions: human leukocyte elastase, substrate MeOSuc-Ala-Ala-Pro-Val-AMC 100 μM, 25° C. for 30 minutes, fluorescence; read-out: HNE inhibition
Protocol: Compounds of the present invention were tested for potency in a human neutrophil elastase (HNE) enzyme activity assay.
Assays were performed in 96-well plates in a total assay volume of 100 μl. The final concentration of elastase enzyme (human leukocyte elastase, Sigma E8140) was 0.0036 units/well […]. The peptide substrate (MeOSuc-Ala-Ala-Pro-Val-AMC, Calbiochem #324740) was used at a final concentration of 100 μM. The final concentration of DMSO was 1% in the assay buffer (0.05M Tris.HCl, 0.1M NaCl, 0.1M CaCl2, 0.0005% brij-35, pH 7.5). The enzymatic reaction was started by addition of the enzyme and incubated at 25° C. for 30 minutes. After incubation, the reaction was stopped by addition of soybean trypsin inhibitor (Sigma T9003) at a final concentration of 50 μg/well. Fluorescence was measured using a Molecular Devices fluorescence plate reader using 380 nm excitation and 460 nm emission wavelengths.
A dose response to each compound was performed and the effect of compound in each experiment was expressed as a percentage inhibition of the control enzyme fluorescence. Dose response curves were plotted and compound potency (IC50) was determined. Compounds were tested in at least two separate experiments.

SMILES | IC50
Cc1c(-c2ccnn2-c2ccc(C#N)cc2)cn2nc(NCCO)nc2c1-c1cccc(C(F)(F)F)c1 [Example 48, 4-{5-[2-(2-Hydroxy-ethylamino)-7-methyl-8-(3-trifluoromethyl-phenyl)-[1,2,4]triazolo[1,5-a]pyridin-6-yl]-pyrazol-1-yl}-benzonitrile] | < 0.02 µM
Cc1c(-c2ccnn2-c2ccc(C#N)cc2)cn2nc(NCCCCN(C)C)nc2c1-c1cccc(C(F)(F)F)c1 [Example 30, 4-{5-[2-(4-Dimethylamino-butylamino)-7-methyl-8-(3-trifluoromethyl-phenyl)-[1,2,4]triazolo[1,5-a]pyridin-6-yl]-pyrazol-1-yl}-benzonitrile] | < 0.02 µM
Cc1c(-c2ccnn2-c2ccc(C#N)cc2)cn2ncnc2c1-c1cccc(C(F)(F)F)c1 [Example 3, 4-{5-[7-Methyl-8-(3-trifluoromethyl-phenyl)-[1,2,4]triazolo[1,5-a]pyridin-6-yl]-pyrazol-1-yl}-benzonitrile] | < 0.02 µM
Cc1c(-c2ccnn2-c2ccc(C#N)cc2)cn2nc(NC(=O)NC3CCN(S(C)(=O)=O)CC3)nc2c1-c1cccc(C(F)(F)F)c1 [Example 58, 1-[6-[2-(4-Cyano-phenyl)-2H-pyrazol-3-yl]-7-methyl-8-(3-trifluoromethyl-phenyl)-[1,2,4]triazolo[1,5-a]pyridin-2-yl]-3-(1-methanesulfonyl-piperidin-4-yl)-urea] | < 0.02 µM
CC(=O)N1CCC(NC(=O)Nc2nc3c(-c4cccc(C(F)(F)F)c4)c(C)c(-c4ccnn4-c4ccc(C#N)cc4)cn3n2)CC1 [Example 57, 1-(1-Acetyl-piperidin-4-yl)-3-[6-[2-(4-cyano-phenyl)-2H-pyrazol-3-yl]-7-methyl-8-(3-trifluoromethyl-phenyl)-[1,2,4]triazolo[1,5-a]pyridin-2-yl]-urea] | < 0.02 µM
Cc1c(-c2ccnn2-c2ccc(C#N)cc2)cn2nc(Cc3ccc(S(C)(=O)=O)cc3)nc2c1-c1cccc(C(F)(F)F)c1 [Example 8, 4-{5-[2-(4-Methanesulfonyl-benzyl)-7-methyl-8-(3-trifluoromethyl-phenyl)-[1,2,4]triazolo[1,5-a]pyridin-6-yl]-pyrazol-1-yl}-benzonitrile] | 0.1 to 0.5 µM
Cc1c(-c2ccnn2-c2ccc(C#N)cc2)cn2nc(NCCCS(C)(=O)=O)nc2c1-c1cccc(C(F)(F)F)c1 [Example 47, 4-{5-[2-(3-Methanesulfonyl-propylamino)-7-methyl-8-(3-trifluoromethyl-phenyl)-[1,2,4]triazolo[1,5-a]pyridin-6-yl]-pyrazol-1-yl}-benzonitrile] | < 0.02 µM
Cc1c(-c2ccnn2-c2ccc(C#N)cc2)cn2nc(Nc3ccc(S(C)(=O)=O)cc3)nc2c1-c1cccc(C(F)(F)F)c1 [Example 7, 4-{5-[2-(4-Methanesulfonyl-phenylamino)-7-methyl-8-(3-trifluoromethyl-phenyl)-[1,2,4]triazolo[1,5-a]pyridin-6-yl]-pyrazol-1-yl}-benzonitrile] | < 0.02 µM
Cc1c(-c2ccnn2-c2ccc(C#N)cc2)cn2nc(NC(=O)CN3CC[N+](C)(C)CC3)nc2c1-c1cccc(C(F)(F)F)c1 [Example 19, 4-{[6-[2-(4-Cyano-phenyl)-2H-pyrazol-3-yl]-7-methyl-8-(3-trifluoromethyl-phenyl)-[1,2,4]triazolo[1,5-a]pyridin-2-ylcarbamoyl]-methyl}-1,1-dimethyl-piperazin-1-ium iodide] | < 0.02 µM
Cc1c(-c2ccnn2-c2ccc(C#N)cc2)cn2c(=O)n(CCCS(C)(=O)=O)nc2c1-c1cccc(C(F)(F)F)c1 [Example 13, 4-{5-[2-(3-Methanesulfonyl-propyl)-7-methyl-3-oxo-8-(3-trifluoromethyl-phenyl)-2,3-dihydro-[1,2,4]triazolo[4,3-a]pyridin-6-yl]-pyrazol-1-yl}-benzonitrile] | 0.1 to 0.5 µM
CC(=O)Nc1nc2c(-c3cccc(C(F)(F)F)c3)c(C)c(-c3ccccc3-c3ccc(C#N)cc3)cn2n1 [Example 43] | < 0.02 µM
CC(=O)Nc1nc2c(-c3cccc(C(F)(F)F)c3)c(C)c(-c3ncnn3-c3ccc(C#N)cc3)cn2n1 [Example 39, N-[6-[2-(4-Cyano-phenyl)-2H-[1,2,4]triazol-3-yl]-7-methyl-8-(3-trifluoromethyl-phenyl)-[1,2,4]triazolo[1,5-a]pyridin-2-yl]-acetamide] | < 0.02 µM
CCOC(=O)Nc1nc2c(-c3cccc(C(F)(F)F)c3)c(C)c(-c3ccnn3-c3ccc(C#N)cc3)cn2n1 [Example 35, [6-[2-(4-Cyano-phenyl)-2H-pyrazol-3-yl]-7-methyl-8-(3-trifluoromethyl-phenyl)-[1,2,4]triazolo[1,5-a]pyridin-2-yl]-carbamic acid ethyl ester] | < 0.02 µM
Cc1c(-c2ccnn2-c2ccc(C#N)cc2)cn2nc(NC(=O)NC3CCN(C)CC3)nc2c1-c1cccc(C(F)(F)F)c1 [Example 51, (1-Methyl-4-piperidyl)[6-[2-(4-cyano-phenyl)-2H-pyrazol-3-yl]-7-methyl-8-(3-trifluoromethyl-phenyl)-[1,2,4]triazolo[1,5-a]pyridin-2-yl]-urea] | < 0.02 µM

Results, then the molecule that gave them:

IC50 | SMILES
> 0.5 µM | Cc1c(-c2ccnn2-c2ccc(C#N)cc2)cn2c(=O)n(CC(=O)N(C)C)nc2c1-c1cccc(C(F)(F)F)c1 [Example 11, 2-[6-[2-(4-Cyano-phenyl)-2H-pyrazol-3-yl]-7-methyl-3-oxo-8-(3-trifluoromethyl-phenyl)-[1,2,4]triazolo[4,3-a]pyridin-2-yl]-N,N-dimethyl-acetamide]
< 0.02 µM | Cc1c(-c2ccnn2-c2ccc(C#N)cc2)cn2nc(NCC(=O)N(C)C)nc2c1-c1cccc(C(F)(F)F)c1 [Example 24, 2-[6-[2-(4-Cyano-phenyl)-2H-pyrazol-3-yl]-7-methyl-8-(3-trifluoromethyl-phenyl)-[1,2,4]triazolo[1,5-a]pyridin-2-ylamino]-N,N-dimethyl-acetamide]
< 0.02 µM | CC(=O)Nc1nc2c(-c3cccc(C(F)(F)F)c3)c(C)c(-c3c(C)cnn3-c3ccc(C#N)cc3)cn2n1 [Example 42, N-[6-[2-(4-Cyano-phenyl)-4-methyl-2H-pyrazol-3-yl]-7-methyl-8-(3-trifluoromethyl-phenyl)-[1,2,4]triazolo[1,5-a]pyridin-2-yl]-acetamide]
< 0.02 µM | Cc1c(-c2ccnn2-c2ccc(C#N)cc2)cn2nc(NC(=O)CC[S+](C)[O-])nc2c1-c1cccc(C(F)(F)F)c1 (stereo not shown) [Example 45, N-[6-[2-(4-Cyano-phenyl)-2H-pyrazol-3-yl]-7-methyl-8-(3-trifluoromethyl-phenyl)[1,2,4]triazolo[1,5-a]pyridin-2-yl]-3-methanesulfinyl-propionamide]
0.02 to 0.1 µM | Cc1c(-c2ccnn2-c2ccc(C#N)cc2)cn2nc(NC(=O)C[N+](C)(C)C)nc2c1-c1cccc(C(F)(F)F)c1 [Example 15, {[6-[2-(4-Cyano-phenyl)-2H-pyrazol-3-yl]-7-methyl-8-(3-trifluoromethyl-phenyl)-[1,2,4]triazolo[1,5-a]pyridin-2-ylcarbamoyl]-methyl}-trimethyl-ammonium bromide]
0.02 to 0.1 µM | Cc1c(-c2ccnn2-c2ccc(C#N)cc2)cn2ccnc2c1-c1cccc(C(F)(F)F)c1 [Example 6, 4-{5-[7-Methyl-8-(3-trifluoromethyl-phenyl)-imidazo[1,2-a]pyridin-6-yl]-pyrazol-1-yl}-benzonitrile]
0.02 to 0.1 µM | Cc1c(-c2ccnn2-c2ccc(C#N)cc2)cn2nc(NCCN(C)C)nc2c1-c1cccc(C(F)(F)F)c1 [Example 29, 4-{5-[2-(2-Dimethylamino-ethylamino)-7-methyl-8-(3-trifluoromethyl-phenyl)-[1,2,4]triazolo[1,5-a]pyridin-6-yl]-pyrazol-1-yl}-benzonitrile]
< 0.02 µM | Cc1c(-c2ccnn2-c2ccc(C#N)cc2)cn2nc(NCCCO)nc2c1-c1cccc(C(F)(F)F)c1 [Example 53, 4-{5-[2-(3-Hydroxy-propylamino)-7-methyl-8-(3-trifluoromethyl-phenyl)-[1,2,4]triazolo[1,5-a]pyridin-6-yl]-pyrazol-1-yl}-benzonitrile]
0.02 to 0.1 µM | Cc1c(-c2ccnn2-c2ccc(C#N)cc2)cn2nc(NS(C)(=O)=O)nc2c1-c1cccc(C(F)(F)F)c1 [Example 27, N-[6-[2-(4-Cyano-phenyl)-2H-pyrazol-3-yl]-7-methyl-8-(3-trifluoromethyl-phenyl)-[1,2,4]triazolo[1,5-a]pyridin-2-yl]-methanesulfonamide]
> 0.5 µM | Cc1cn2cc(-c3ccnn3-c3ccc(C#N)cc3)c(C)c(-c3cccc(C(F)(F)F)c3)c2n1 [Example 5, 4-{5-[2,7-Dimethyl-8-(3-trifluoromethyl-phenyl)-imidazo[1,2-a]pyridin-6-yl]-pyrazol-1-yl}-benzonitrile]
< 0.02 µM | Cc1c(-c2ccnn2-c2ccc(C#N)cc2)cn2nc(NC(=O)CCS(C)(=O)=O)nc2c1-c1cccc(C(F)(F)F)c1 [Example 46, N-[6-[2-(4-Cyano-phenyl)-2H-pyrazol-3-yl]-7-methyl-8-(3-trifluoromethyl-phenyl)-[1,2,4]triazolo[1,5-a]pyridin-2-yl]-3-methanesulfonyl-propionamide]

Source: patent US9199984B2, “Inhibition of enzymes” (CHIESI FARMACEUTICI S.p.A., priority 2012, dated 2015)
